Results taken from patent US20150329512A1, “METHOD AND PHARMACEUTICAL COMPOSITION FOR TREATING LUNG CANCER” (National Dong Hua University, priority 2014, published 2015).

Key:
A549 cells [1] = assay: Cell cycle analysis by flow cytometer (PI staining); format: cell-based, human; conditions: for G0/G1 (%) / G2/M (%) / S (%) / Sub G1 (%): A549
Experimental: (§1) The results of Example 2 in cell viability hinted the effects of HCD, PG, and Dox on arresting cell cycle. In this example, the phase of cell cycle of A549 cells and Anti-Dox-A549 cells after the treatment listed in Table 1 was determined by flow cytometer. Briefly, 7×10^4 cells per well were to inoculated in 12-wells plate and incubated overnight at 37° C., 5% CO2. Then, cells were treated according to the treatment listed in Table 1 by indicated time period. After treatment, cells were harvested by trypsin and fixed with 70% ethanol at −20° C. for at least 3 hr. The cells were washed in cold PBS twice and then incubated with 1 ml (v/v) staining solution (20 μg/m1 propidium iodide (PI), 0.1% Triton X-100, 0.2 mg/ml Rnase) at 37° C. for 30 minutes. Lastly, cells were analyzed by flow cytometer (Cytomics™ FC500, Backman, Fullerton, Calif., USA). Data from 10,000 cells were collected for each experimental group.

Anti-Dox-A549 cells [2] = assay: as above; format: cell-based, human; conditions: for G0/G1 (%) / G2/M (%) / S (%) / Sub G1 (%): Anti-Dox-A549
Experimental: as §1

[3] = test system: human lung cancer in lung of mice; assay: Mouse model bearing human lung cancer in lung (A549 or Anti-Dox-A549 cells injected)
Experimental: The animal experiments were approved by the National Dong-Hwa University Animal Ethics Committee and the experimental protocols were used according to the “Guide for the Care and Use of Laboratory Animals” of National Dong-Hwa University. 1×10^7 of A549 cells or Anti-Dox-A549 cells were suspended in PBS to prepare cell suspensions. On day 0, C57/BL6 mice (6-8 weeks old, n=6) were weighted and anesthetic using pentobarbital (5 mg/ml). Then, the mice were injected with the cell suspension (1×10^7 cells per mouse) into the lung by IT. The injection was repeated every 7 days for 21 days. Another group of mice were injected with 10% EtOH as comparative group according to the same procedure set forth above.
After the establishment of human lung cancer in the experimental mice, the mice were maintained for one more week and then treated with HCD (0.0318 or 1.272 mg/kg body weight, in 10% ETOH with PBS), PG (0.1615 or 0.646 mg/kg body weight, in 10% ETOH with PBS) or 10% EtOH by IT injection (intrathecal injection) to the lung. The body weight was monitored every five days for thirty days. After thirty days, the mice were sacrificed and the lungs were checked for marker of human lung adenocarcinoma by H&E and IHC staining. The livers, kidneys and spleens of the mice were also examined to confirm the cytotoxicity of HCD and PG and to see if there was any metastasis happened.

A549 cells [4] = assay: MTT assay, cell viability; format: cell-based, human
Experimental: (§2) A549 (lung cancer cell line, non-resistance) and Anti-Dox-A549 (lung cancer cell line with resistance to Doxorubicin) were maintained in DMEM supplemented with 10% fetal bovine serum (FBS, Gibco), pH 7.4, 37° C. and with continuous circulation of 5% CO2. The medium was changed every 2 days and the cells were trypsinized with trypsin/EDTA when reaching 80%-90% confluence.
(§3) A549 and Anti-Dox-A549 were treated by the following treatment (Table 1) for 24 or 48 hr for examining the effects of HCD, PG, and Dox on their viability.
(§4) Dox1is referred as Dox of 1 μM; Dox2.5 is referred as Dox of 2.5 μM; Dox5 is referred as Dox of 5 μM; Dox10 is referred as Dox of 10 μM; Dox100 is referred as Dox of 100 μM. HCD2.5 is referred as HCD of 2.5 μM; HCD10 is referred as HCD of 10 μM; HCD25 is referred as HCD of 25 μM; HCD50 is referred as HCD of 50 μM. PG2.5 is referred as PG of 2.5 μM; PG5 is referred as PG of 5 μM; PG10 is referred as PG of 10 μM; PG20 is referred as PG of 20 μM.
(§5) In this example, the effects of HCD, PG, and Dox on the viability of A549 and anti-Dox-A549 were examined. The MTT assay was employed for this purpose. The MTT (3-(4-,5-dimethylthiazol-2-yl)-2,5-diphenyltetrazolium bromide) assay is a common colorimetric method in the field for cell viability analysis. MTT (yellow tetrazolium salt) is reduced to a purple formazan by living cells and detection to the purple formazan can be calculated as the cell viability.
(§6) Briefly, cells (A549 or Anti-Dox-A549) were seeded in 96-well plate (7×10^3 cell per well) and incubated overnight (37° C., 5% CO2).

Anti-Dox-A549 cells [5] = assay: MTT assay, cell viability; format: cell-based, human
Experimental: as §2, §3, §4, §5, §6

[6] = mice treated by IT injection to the lung, after thirty days, data not shown
[7] = pre-treatment (HCD especially 10 or 25 μM), then Dox 1 or 2.5 μM

SMILES: CC1=CCCC2C1(C)CCC(C)C2(C)CCC1=CC(=O)OC1O (stereo not drawn) [HCD, 16-hydroxy-cleroda-3,13-dine-15,16-olide]
- cell cycle effect compared with the control group (A549 cells [1]; A549 cells, Tables 3 and 5): increased cell cycle arrest at G2/M phase
- cell cycle effect of pre-treatment and subsequent Dox (A549 cells [1]; A549 cells, Tables 9 and 11): increased sub G1 phase and arrested at G2/M phase
- G0/G1 (%) (A549 cells [1]; HCD 2.5 μM, 24 hr): 77.3 ± 0.9%
- G2/M (%) (A549 cells [1]; HCD 2.5 μM, 24 hr): 9.7 ± 0.9%
- S (%) (A549 cells [1]; HCD 2.5 μM, 24 hr): 9.6 ± 0.5%
- Sub G1 (%) (A549 cells [1]; HCD 2.5 μM, 24 hr): 1.0 ± 0.2%
- G0/G1 (%) (A549 cells [1]; HCD 2.5 μM, 36 hr): 74.4 ± 2.6 %
- G2/M (%) (A549 cells [1]; HCD 2.5 μM, 36 hr): 11.8 ± 0.9%
- S (%) (A549 cells [1]; HCD 2.5 μM, 36 hr): 9.5 ± 0.4 %
- Sub G1 (%) (A549 cells [1]; HCD 2.5 μM, 36 hr): 1.1 ± 0.1%
- G0/G1 (%) (A549 cells [1]; HCD 2.5 μM, 48 hr): 80.4 ± 0.2%
- G2/M (%) (A549 cells [1]; HCD 2.5 μM, 48 hr): 8.9 ± 0.1%
- S (%) (A549 cells [1]; HCD 2.5 μM, 48 hr): 6.9 ± 0.1%
- Sub G1 (%) (A549 cells [1]; HCD 2.5 μM, 48 hr): 1.8 ± 0.2%
- G0/G1 (%) (A549 cells [1]; HCD 10 μM, 24 hr): 85.6 ± 6.9 %
- G2/M (%) (A549 cells [1]; HCD 10 μM, 24 hr): 6.1 ± 0.5 %
- S (%) (A549 cells [1]; HCD 10 μM, 24 hr): 3.9 ± 2.8 %
- Sub G1 (%) (A549 cells [1]; HCD 10 μM, 24 hr): 1 ± 0.2%
- G0/G1 (%) (A549 cells [1]; HCD 10 μM, 36 hr): 75.4 ± 1.8%
- G2/M (%) (A549 cells [1]; HCD 10 μM, 36 hr): 10.0 ± 1.2%
- S (%) (A549 cells [1]; HCD 10 μM, 36 hr): 10.7 ± 0.4 %
- Sub G1 (%) (A549 cells [1]; HCD 10 μM, 36 hr): 1.4 ± 0.2%
- G0/G1 (%) (A549 cells [1]; HCD 10 μM, 48 hr): 75.6 ± 1.8%
- G2/M (%) (A549 cells [1]; HCD 10 μM, 48 hr): 11.2 ± 0.2 %
- S (%) (A549 cells [1]; HCD 10 μM, 48 hr): 8.7 ± 0.2%
- Sub G1 (%) (A549 cells [1]; HCD 10 μM, 48 hr): 1.8 ± 0.2%
- G0/G1 (%) (A549 cells [1]; HCD 25 μM, 24 hr): 62.9 ± 3.3%
- G2/M (%) (A549 cells [1]; HCD 25 μM, 24 hr): 22.8 ± 3.0 %
- S (%) (A549 cells [1]; HCD 25 μM, 24 hr): 11.1 ± 1.3%
- Sub G1 (%) (A549 cells [1]; HCD 25 μM, 24 hr): 1.5 ± 0.2%
- G0/G1 (%) (A549 cells [1]; HCD 25 μM, 36 hr): 62.3 ± 1.3 %
- G2/M (%) (A549 cells [1]; HCD 25 μM, 36 hr): 22.8 ± 1.5 %
- S (%) (A549 cells [1]; HCD 25 μM, 36 hr): 9.2 ± 0.7 %
- Sub G1 (%) (A549 cells [1]; HCD 25 μM, 36 hr): 2.7 ± 0.1 %
- G0/G1 (%) (A549 cells [1]; HCD 25 μM, 48 hr): 61.7 ± 1.2 %
- G2/M (%) (A549 cells [1]; HCD 25 μM, 48 hr): 22.7 ± 0.5 %
- S (%) (A549 cells [1]; HCD 25 μM, 48 hr): 7.9 ± 1.3%
- Sub G1 (%) (A549 cells [1]; HCD 25 μM, 48 hr): 1.9 ± 0.5 %
- cell cycle effect compared with the control group (Anti-Dox-A549 cells [2]; Anti-Dox-A549 cells, Tables 2 and 4): increased cell cycle arrest at G2/M phase
- cell cycle effect of pre-treatment and subsequent Dox (Anti-Dox-A549 cells [2]; Anti-Dox-A549 cells, Tables 8 and 10): increased sub G1 phase and arrested at G2/M phase
- G0/G1 (%) (Anti-Dox-A549 cells [2]; HCD 2.5 μM, 24 hr): 68.2 ± 2.8%
- G2/M (%) (Anti-Dox-A549 cells [2]; HCD 2.5 μM, 24 hr): 16.5 ± 1.8%
- S (%) (Anti-Dox-A549 cells [2]; HCD 2.5 μM, 24 hr): 12.1 ± 0.8%
- Sub G1 (%) (Anti-Dox-A549 cells [2]; HCD 2.5 μM, 24 hr): 0.63 ± 0.05%
- G0/G1 (%) (Anti-Dox-A549 cells [2]; HCD 2.5 μM, 36 hr): 80.3 ± 0.6%
- G2/M (%) (Anti-Dox-A549 cells [2]; HCD 2.5 μM, 36 hr): 9.6 ± 0.3%
- S (%) (Anti-Dox-A549 cells [2]; HCD 2.5 μM, 36 hr): 7.4 ± 0.2%
- Sub G1 (%) (Anti-Dox-A549 cells [2]; HCD 2.5 μM, 36 hr): 0.93 ± 0.2%
- G0/G1 (%) (Anti-Dox-A549 cells [2]; HCD 2.5 μM, 48 hr): 82.1 ± 0.7%
- G2/M (%) (Anti-Dox-A549 cells [2]; HCD 2.5 μM, 48 hr): 8.9 ± 0.7%
- S (%) (Anti-Dox-A549 cells [2]; HCD 2.5 μM, 48 hr): 6.1 ± 0.3%
- Sub G1 (%) (Anti-Dox-A549 cells [2]; HCD 2.5 μM, 48 hr): 1.56 ± 0.2%
- G0/G1 (%) (Anti-Dox-A549 cells [2]; HCD 10 μM, 24 hr): 83.6 ± 1.4 %
- G2/M (%) (Anti-Dox-A549 cells [2]; HCD 10 μM, 24 hr): 6.6 ± 0.55 %
- S (%) (Anti-Dox-A549 cells [2]; HCD 10 μM, 24 hr): 7.0 ± 0.6%
- Sub G1 (%) (Anti-Dox-A549 cells [2]; HCD 10 μM, 24 hr): 0.73 ± 0.05%
- G0/G1 (%) (Anti-Dox-A549 cells [2]; HCD 10 μM, 36 hr): 75.8 ± 0.3 %
- G2/M (%) (Anti-Dox-A549 cells [2]; HCD 10 μM, 36 hr): 11.8 ± 1.0 %
- S (%) (Anti-Dox-A549 cells [2]; HCD 10 μM, 36 hr): 9.2 ± 0.4 %
- Sub G1 (%) (Anti-Dox-A549 cells [2]; HCD 10 μM, 36 hr): 1 ± 0.2%
- G0/G1 (%) (Anti-Dox-A549 cells [2]; HCD 10 μM, 48 hr): 82.2 ± 0.7%
- G2/M (%) (Anti-Dox-A549 cells [2]; HCD 10 μM, 48 hr): 8.3 ± 0.2%
- S (%) (Anti-Dox-A549 cells [2]; HCD 10 μM, 48 hr): 6.4 ± 0.3%
- Sub G1 (%) (Anti-Dox-A549 cells [2]; HCD 10 μM, 48 hr): 1.76 ± 0.1%
- G0/G1 (%) (Anti-Dox-A549 cells [2]; HCD 25 μM, 24 hr): 70.5 ± 2.7%
- G2/M (%) (Anti-Dox-A549 cells [2]; HCD 25 μM, 24 hr): 19.3 ± 1.7 %
- S (%) (Anti-Dox-A549 cells [2]; HCD 25 μM, 24 hr): 7.9 ± 0.8 %
- Sub G1 (%) (Anti-Dox-A549 cells [2]; HCD 25 μM, 24 hr): 1.3 ± 0.1 %
- G0/G1 (%) (Anti-Dox-A549 cells [2]; HCD 25 μM, 36 hr): 73.9 ± 2.7 %
- G2/M (%) (Anti-Dox-A549 cells [2]; HCD 25 μM, 36 hr): 17.7 ± 1.9 %
- S (%) (Anti-Dox-A549 cells [2]; HCD 25 μM, 36 hr): 5.4 ± 0.9%
- Sub G1 (%) (Anti-Dox-A549 cells [2]; HCD 25 μM, 36 hr): 3.43 ± 0.2 %
- G0/G1 (%) (Anti-Dox-A549 cells [2]; HCD 25 μM, 48 hr): 3.73 ± 1.6 %
- G2/M (%) (Anti-Dox-A549 cells [2]; HCD 25 μM, 48 hr): 21.8 ± 2.4 %
- S (%) (Anti-Dox-A549 cells [2]; HCD 25 μM, 48 hr): 11.2 ± 1.3 %
- Sub G1 (%) (Anti-Dox-A549 cells [2]; HCD 25 μM, 48 hr): 27.2 ± 0.5 %
- H&E and IHC staining of the lung ([3]; HCD 0.0318 or 1.272 mg/kg, PG 0.1615 or 0.646 mg/kg body weight, IT injection to the lung, after thirty days): less cell invention around blood vessels 1 and less cell accumulation 2 around the trachea 4
- body weight of the experimental mice ([3]; HCD 0.0318 or 1.272 mg/kg, PG 0.1615 or 0.646 mg/kg body weight, IT injection to the lung, monitored every five days for thirty days): did not show significantly change
- injury of livers, kidneys and spleens (staining) [3, 6]: did not cause serious cytotoxicity
- metastasis in livers, kidneys and spleens [3, 6]: no metastasis happened
- IC50 (A549 cells [4]; 24 hr treatment): ~50 µM
- effect of pre-treatment on the effects of Dox on cell viability (A549 cells [4]; [7]): enhance the effects of Dox on viability
- IC50 (Anti-Dox-A549 cells [5]; 24 hr treatment): ~50 µM
- effect of pre-treatment on the effects of Dox on cell viability (Anti-Dox-A549 cells [5]; [7]): rescue the sensitivity of Anti-Dox-A549 cells to Dox
